US6681132B1, “Sodium magnetic reasonance imaging used in diagnosing tumors and assessing response to treatment” (The Trustees of Columbia University in the City of New York, priority 1999, dated 2004)
Entries after “also recorded” stand apart in the source; their conditions may differ.

Key:
DU145 cells = assay: APO-BRDU endlabelling of DNA fragmentation, flow cytometry, DU145; assay type: cell-based, human; conditions: for time course of DNA fragmentation: DU 145, 24-hr sample point
Procedure: Chemotherapy, cellular apoptosis, ion activity Cells were cultured and drugs added to media for various times. Fluorescent endlabelling techniques for flow cytometry have been described in detail (23, 97). […] TdT attaches BrdU to DNA ends, following which fluorescent antibodies for BrdU tagged the DNA fragments. Propidium iodide (PI) gives cell cycle position.
At the end of the treatment period, cells are trypsinized, resuspended in media, resuspended in PBS, resuspended in iced cold methanol free formaldehyde (1% in PBS) for 15 min, resuspended in 70% ethanol and stored at −20° C. until all samples from a given experiment are ready to run (19, 23).
(§1) Fixed cells are labeled following kit instructions (two washes with kit buffer, overnight endlabelling, two resuspensions in a rinse buffer, exposure to fluorescent antibody and treatment with propidium iodide and RNAase. Flow cytometry is performed on a Becton/Dickenson FACStar II. Individual fluorescence intensity values for 10,000 cells are obtained for each sample.
To specifically assay DNA fragmentation, a downstream response to apoptosis, uses of a terminal deoxynucleotidyl transferase labeling approach whereby fluorescent moieties are enzymatically attached to all DNA fragment ends.

LNCaP = assay: APO-BRDU endlabelling of DNA fragmentation, flow cytometry, LNCaP; assay type: cell-based, human
Procedure: At the end of the treatment period, cells are trypsinized, resuspended in media, resuspended in PBS, resuspended in iced cold methanol free formaldehyde (1% in PBS) for 15 min, resuspended in 70% ethanol and stored at −20° C. until all samples from a given experiment are ready to run (19, 23). Using a very powerful endlabelling technique (APO-BRDU, Phoenix Flow Systems, California) which gives a dynamic range of fluorescence intensities of up to 1000 fold comparing control cells to cells with advanced DNA fragmentation. Results have been confirmed using positive and negative controls provided by Phoenix Flow Systems, camptothecin treated PC3 cells, and a SNAP treated myocyte line.
as §1
To specifically assay DNA fragmentation, a downstream response to apoptosis, uses of a terminal deoxynucleotidyl transferase labeling approach whereby fluorescent moieties are enzymatically attached to all DNA fragment ends. (FIG. 3a) The technique which was used, has a dynamic range of approximately ×1000 (FIG. 2). This allows for making very quantitative comparisons of DNA fragmentation on a cell to cell basis using flow cytometry, and to further examine the relative drug sensitivity profiles of the 3 cell lines.

L cells = conditions: cited from earlier work
[1] = tested on: carcinogen (MNU) induced breast tumor; assay: Weighted and non-weighted sodium MRI of carcinogen (MNU) induced breast tumor; assay type: in vivo, Sprague Dawley rat; conditions: rat
Procedure: In another example, a breast cancer tumor is imaged in an animal model. This image verifies that the imaging diagnostic described herein responds to the treatment of a different animal model when using a different tissue type as the neoplastic target. The tumor was induced by injecting a Sprague Dawley rat with carcinogen MNU. When the tumor was palpable and measured in excess of 5 mm in diameter, the rat was imaged using weighting and non-weighting pulse sequences. One rat was given a 3 mg intra venous injection of taxotere and a second was given a 6 mg injection of taxotere. […] Both the images became brighter, with the most dramatic proportional change occurring in the weighted image.

LNCaP tumor = assay: Na SQ and TQ line profiles of LNCaP tumor in vivo; conditions: 18 hours after i.v. injection of 1 mg in the femoral vein
Procedure: After preliminary studies, experiments were performed where proton, Na SQ and Na TQ images and line profiles were acquired at baseline and following bolus i.v. injection of chemotherapy. Imaging results for a LNCaP tumor in vivo, both at baseline and 18 hours after i.v. injection of 1 mg of taxotere in the femoral vein were examined.

[2] = human single loading doses; cited from earlier work
mouse = conditions: in vivo; cited from earlier work

Row | SMILES | time course of DNA fragmentation (DU145 cells) | endlabelling response (DU145 cells; Du145, 8 hrs) | increase of endlabelling intensity (DNA fragmentation) (DU145 cells; Du145, 24 hrs exposure) [fold] | DNA fragmentation response (LNCaP; 24 hrs) | DNA fragmentation response (LNCaP; 44 hrs) | effect on total cellular monovalent cations (L cells; K+ loss exceeds Na+ gain) | effect on [Cai] (L cells; L cells) | effect on [Nai] (L cells; L cells) | effect on pHi (L cells; L cells) | response of sodium MR images to treatment ([1]; 3 mg intra venous injection) | response of sodium MR images to treatment ([1]; 6 mg intravenous injection) | change of SQ line profile (LNCaP tumor) | change of TQ line profiles (LNCaP tumor) | peak plasma level [2] | plasma level for the first 9.6 hrs [2] [nM] | plasma level for the first 25 hrs [2] [nM] | reported toxic mouse dose (mouse) [mg]
1 | COc1cc([C@@H]2c3cc4c(cc3[C@@H](O[C@@H]3O[C@@H]5CO[C@@H](C)O[C@H]5[C@H](O)[C@H]3O)[C@H]3COC(=O)[C@H]23)OCO4)cc(OC)c1O [VP-16, etoposide] | response peaks and subsides | No response | 100 | almost no response | significant DNA fragmentation | net reduction | elevate | elevate | lowers | – | – | – | – | – | – | – | –
2 | CC(=O)O[C@@]12CO[C@@H]1C[C@H](O)[C@@]1(C)C(=O)[C@H](O)C3=C(C)[C@@H](OC(=O)[C@H](O)[C@@H](NC(=O)OC(C)(C)C)c4ccccc4)C[C@@](O)([C@@H](OC(=O)c4ccccc4)[C@H]21)C3(C)C [taxotere] | response peaks and subsides | – | – | almost no response | significant DNA fragmentation | – | – | – | – | Only the latter showed a response | showed a response; also recorded: become brighter after the treatment | did not significantly vary | substantial increase | about 5 μMol/L | > 50 | > 10 | 4.5
